Laboratory results published in patent EP4736876A1, “DRUG COMBINATION CONTAINING PD-L1 SMALL MOLECULE INHIBITOR AND USE THEREOF” (Beijing Maxinovel Pharmaceuticals Co., Ltd., priority 2023, dated 2025).

Legend:
[1] = system: 4T1 hPD-L1 cells; experiment: Pharmacodynamic study on mouse breast cancer 4T1 hPD-L1 model, subcutaneous (Example 1, capecitabine combination); assay type: in vivo, BALB/c mice; details: Compound of Formula I 120 mg/kg p.o. BID, Capecitabine 100 mg/kg p.o. QD
Description: Experimental animals: 100 BALB/c mice, female, 6 to 8 weeks old, weighing 18 to 21 g, purchased from Shanghai Jihui Laboratory Animal Care Co., Ltd. (SCXK (Shanghai) 2020-0009; Certificate No.: 20220009001922).
Drugs: Compound of Formula I [drawing 4] manufacturer: Pharmaron (Tianjin) Process Development and Manufacturing Co., Ltd., batch number: TJ-MAX-10181-A-2; Capecitabine, manufacturer: Shanghai Yuanye Bio-Technology Co., Ltd., batch number: J10J12L137020.
Murine 4T1 hPD-L1 cells were grown adherently in vitro under culture conditions of RPMI-1640 medium supplemented with 10% heat-inactivated fetal bovine serum and 4 µg/mL Blasticidin (Beyotime/ST018-1mL), at 37°C with 5% CO2. Cells were passaged 2 to 3 times per week. When cells were in the exponential growth phase, the cells were harvested, counted, and inoculated subcutaneously on the right dorsal side of BALB/c mice.
100 µL of 1 × 10^6 4T1 hPD-L1 cell suspension was inoculated subcutaneously on the right dorsal side of BALB/c mice. On the 6th day after inoculation, suitable animals were selected based on tumor volume and body weight, and stratified randomization was used to divide them into 4 groups, with 10 mice per group. Administration began on the day of grouping. Table 1: Animal Experiment Grouping and Administration Regimen
The experimental indicators were examined to determine whether tumor growth could be inhibited, delayed, or cured. Tumors were measured three times per week using a digital vernier caliper. The tumor volume was calculated using the formula: V = 0.5a × b^2, where a and b represent the long and short diameters of the tumor, respectively. The tumor growth inhibition efficacy of compounds was calculated as: TGI (%) = [1 - (TVi - TV0) / (TVVi - TVV0)] × 100% (where TV0 represents the mean volume of the treatment group on day 0, TVV0 represents the mean volume of the control group on day 0; TVi represents the mean volume of the treatment group on day i, and TVVi represents the mean volume of the control group on day i).
If the animals' health condition continued to deteriorate, or the tumor volume exceeded 2,000 mm^3, or severe illness or pain occurred, euthanasia was required. In the following circumstances, the veterinarian was notified and euthanasia was performed: • (1) Significant emaciation with body weight loss exceeding 20%; • (2) Inability to freely access food and water; • (3) The experiment was terminated when the average tumor volume in the control group reached 2000 mm^3.
GraphPad Prism 8.0 software was used for plotting. Changes in tumor volume in mice were analyzed by Two-way ANOVA and compared with the vehicle control group using Dunnett's method, with P < 0.05 considered statistically significant.

[2] = system: 4T1 cells; experiment: Orthotopic 4T1 breast cancer model with tumor resection, survival study (Example 3, paclitaxel combination); assay type: in vivo, BALB/c mice; details: day 38; Compound of Formula I 60 mg/kg PO BID; Paclitaxel 6 mg/kg IP Q2D; orthotopic tumors resected 13 days after inoculation; n=10
Description: Experimental animals: 50 BALB/c mice, female, 6 to 8 weeks old, weighing 18 to 20 g. Zhejiang Vital River Laboratory Animal Technology Co., Ltd., Tongxiang Branch (SCKX (Zhejiang) 2021-0006); Certificate No.: 20220728Abzz0600000694.
Drugs: Compound of Formula I, manufacturer: Pharmaron (Tianjin) Process Development and Manufacturing Co., Ltd., batch number: TJ-MAX-10181-A-2; Paclitaxel (6 mg/mL), manufacturer: Corden Pharma Latina S.P.A., batch number: 2D07013.
Murine 4T1 cells were grown adherently in vitro under culture conditions of RPMI-1640 medium supplemented with 10% heat-inactivated fetal bovine serum at 37°C with 5% CO2. Cells were passaged 2 to 3 times per week. When the cells were in the exponential growth phase, the cells were harvested, counted, and inoculated into the fourth fat pad on the left abdomen of BALB/c mice.
50 µL of 1 × 10^5 4T1 cell suspension was inoculated into the fourth fat pad on the left abdomen of BALB/c mice. […]
The experimental indicators were examined to determine whether tumor growth could be inhibited, delayed, or cured. Tumors were measured three times per week using a digital vernier caliper. The tumor volume was calculated using the formula: V = 0.5a × b^2, where a and b represent the long and short diameters of the tumor, respectively. […]

Cc1c(/C=C/c2cc(CN[C@@](C)(CO)C(=O)O)ccc2C(F)(F)F)cccc1-c1ccccc1 [Compound of Formula I]
TGI (%)/Day 21 ([1]; Day 21 vs vehicle control): 41.88%
Tumor Volume at the End of the Experiment/Day 21 ([1]; mean, n=10, Day 21): 1103.30 mm^3
Tumor Volume at the Beginning of the Experiment/Day 0 ([1]; mean, n=10, baseline on day of grouping): 125.52 mm^3
Body Weight of Animals at the Beginning of the Experiment ([1]; mean, baseline): 24.20 g
survival rate of mice [2]: 0%
